Measured values as given in patent publication US11446265B2, “Reagents, compositions and methods for improving viability and function of cells, tissues and organs” (TARGA BIOMEDICAL, priority 2016, dated 2022).

How the values were obtained:
[1] = tested on: antioxidant responsive elements (ARE); test: Antioxidant response luciferase reporter assay in H9c2; type: cell-based, rat; settings: H9c2, 10E-5 to 10E-10M, 4 hours, 3 hours washout
Description: (§1) H9c2 rat cardiomyoblasts were seeded at a density of 5,000 cells per well in 96 well plates in DMEM 10% FBS complete medium and transfected using lipofectamine with the Cignal Reporter Assay Heat shock response and Antioxidant response kits (SABiosciences, Qiagen) according to the manufacturers' protocol.

[2] = tested on: human mesenchymal stem cells (hMSC); test: mRNA expression in hMSC by real-time PCR; type: cell-based; settings: FIGS. 25A, 25B, 26A to 26D
From the text: FIG. 25A is a table representing mRNA expression of selected genes measured by real-time PCR in human mesenchymal stem cells (hMSC) conditioned with Celastrol alone or in combination with selected adjunct agents. Results are expressed as fold change versus Vehicle-treated cells.
FIG. 25B is a table representing mRNA expression of selected genes measured by real-time PCR in human mesenchymal stem cells (hMSC) conditioned with selected Celastrol analogs alone or in combination with selected adjunct agents. Results are expressed as fold change versus Vehicle-treated cells.
Results are expressed as fold change versus Vehicle-treated cells. (Arbitrary angiogenic index: (VEGFa+FGF2+SDF1)*2) (A=Additive effect; S=Synergistic effect).
(§2) To test the second main condition, MSCs were treated with the candidate pharmaco-optimizers for 1 hour, followed by 3 hours washout period. Cell mRNA was extracted and expression of genes of interest was quantified by real time PCR. In additional MSC cultures, cells were treated for one hour, washed and cultured in low serum media for 24 hours. The media containing paracrine factors secreted by MSCs was then placed in contact with H9c2 cardiomyoblast cell line. H9c2 cells were then submitted to the hypoxia/serum starvation (<1% O2 in hypoxia chamber in low serum media for 48 hours) or oxidative stress (incubation in media for 1 hour spiked with 0-1 mM H2O2). Viability status of H9c2 cells was evaluated using the LIVE/DEAD assay as detailed above.

[3] = tested on: heat shock response (HSR); test: Heat shock response luciferase reporter assay in H9c2; type: cell-based, rat; settings: H9c2, 10E-5 to 10E-10M, 4 hours, 3 hours washout
Description: as §1

H9c2 cardiomyoblasts [4] = test: H9c2 viability under hypoxia/serum starvation (LIVE/DEAD); type: cell-based, rat; settings: 1 uM
Description: For survival to hypoxic challenge and oxidative challenge, H9c2 cardiomyoblasts are submitted to the hypoxia/serum starvation (<1% O2 in hypoxia chamber in low serum media for 48 hours) or oxidative stress (incubation in media for 1 hour spiked with 0-1 mM H2O2). Viability status of H9c2 cells was evaluated using the LIVE/DEAD assay.

isolated perfused heart = tested on: isolated perfused heart; design: species or system rat
[5] = Rat myocardial ischemia/reperfusion in vivo, echocardiography at 24 h; settings: 1 mg/Kg intraventricular, vs Vehicle
Description: Rats were randomly assigned to the following groups: Sham (n=6), Vehicle (n=8), Celastrol 1 mg/Kg (n=6) or Celastrol analogs. Under 2% isoflurane anesthesia, baseline echocardiography using a Sonos 5500 Imaging System (Philips, Philips Healthcare, Andover, Mass., USA) with a 12 MHz transducer was performed as described^12. All measures were acquired by the same experienced observer, blinded to the treatment. For each measurement, three to five cardiac cycles were analysed and averaged.
After echocardiography, the animal was intubated and mechanically ventilated, then bupivacaine 2 mg/kg was injected, and a left thoracotomy was performed, exposing the heart. Using a 5-0 silk slipknot, an occlusion of the left anterior descending coronary artery was performed. Visual blanching and electrocardiographic changes confirmed myocardial ischemia. In Sham animals, suture was not ligated. After 30 minutes, the suture occlusion was released. Celastrol, Celastrol analogs or vehicle was injected intraventricularly for acute systemic delivery, then the chest was closed. Buprenorfine (0.05 mg/Kg sc) and carprofen (5 mg/Kg sc) were injected at the end of surgery. Animals were left to recuperate for 24 h, then a second echocardiography was performed. Animals were sacrificed, cardiac tissue was snap frozen, and blood was collected in heparinized tubes, then centrifuged at 4° C. Plasma was collected, snap frozen and kept at −80° C. until analysis.

H9c2 cardiomyoblasts [6] = test: H9c2 viability under hypoxia/reoxygenation stress; type: cell-based, rat; settings: 1 uM
Description: Next, the hypoxia/reoxygenation challenge is performed. Briefly, viability analysis was performed in rat H9c2 cardiomyoblasts as previously reported. For hypoxia/reoxygenation stress, cells were cultured in DMEM no glucose (Life Technologies), serum starved and placed in hypoxic conditions (<1% O2) for 18 h. At reoxygenation (normoxic conditions), cells were treated with Celastrol (10^−10 to 10^−6 mol/L, Cayman Chemical, Ann Arbor, Mich.), Celastrol analogs or vehicle (Dimethyl sulfoxide (DMSO), Sigma-Aldrich Canada, Oakville, ON; final concentration<1% v/v) in DMEM high glucose 1% FBS for 1 h, then reoxygenation was continued in DMEM high glucose for an additional 5 h.

H9c2 cells = test: H9c2 viability in oxidative stress after pre-conditioning with media from treated rMSC (paracrine); type: cell-based, rat; settings: 24-hour preconditioning with media from treated rMSC
Description: as §2

[7] = tested on: rat mesenchymal stem cells (rMSC); test: rMSC viability after hypoxia/serum starvation (LIVE/DEAD); type: cell-based; settings: 1-hour treatment, compound alone
Description: (§3) To test the first main condition, MSCs (either sourced from rat or humans) were treated with the candidate pharmaco-optimizers, washed and submitted to hypoxia/serum starvation (<1% O2 in hypoxia chamber in low serum media for 48-72 hours) or oxidative stress (incubation in media for 1 hour spiked with 0-2 mM H2O2), which mimic the major lethal stressors present in the ischemic transplant microenvironment. Viability status of cells are assessed using the LIVE/DEAD viability/cytotoxicity kit (Life Technologies™) and results are quantified by Operetta high content screening (HCS) apparatus equipped with Harmony automated analysis software (Perkin Elmer™).

[8] = tested on: H9c2 cardiomyoblast cell line; test: H9c2 viability in hypoxia after pre-conditioning with media from treated rMSC (paracrine); type: cell-based, rat; settings: 48-hour pre-conditioning with media from treated rMSC; Gedunin high dose
Description: as §2

[9] = tested on: rat mesenchymal stem cells (rMSC); test: mRNA expression in rMSC by real time PCR; type: cell-based; settings: rMSC, 1-hour treatment and 3-hour washout, co-treatment with EGCG or tBHQ
Description: as §2
Combination Treatments Tested—First Experiment: Celastrol (1 μM) or Gedunin (1 μM)+EGCG (1 μM, 10 μM) or TBHQ (1 μM, 5 μM)

human MSCs = test: Screen of compounds for viability of human MSCs under hypoxic stress; type: cell-based; settings: FIG. 1
Description: In an attempt to identify conditioning compounds that are able to ensure in vivo cellular viability, based on preliminary evidence using Celastrol, over a dozen compounds with structural similarities identified through literature and the Sigma-Aldrich® Structure Search online tool, were screened. The compounds' capacity to improve viability of human MSCs challenged to hypoxic stress was measured. The molecules that were screened, most of which are natural compounds, can be classified as triterpenoids, limonoids, withanolides, sterols, isoprenoides/ diterpenes and flavonoids. Classical HSP90 inhibitors were also added to the screen, such as Radicicol that directly target the ATP binding pocket at the NT region of HSP90^9 (NT inhibitor). […] 28; 42(2):260-6.^10Patwardhan C. A. et al., J Biol Chem. 2013 Mar. 8; 288(10):7313-25.^11Sreeramulu S. et al., Angew Chem Int Ed Engl. 2009; 48(32):5853-5.^12Gu M., et al. Invest New Drugs. 2014 Feb.;32(1):68-74.

[10] = tested on: rat mesenchymal stem cells (rMSC); test: rMSC viability after oxidative stress (H2O2, LIVE/DEAD); type: cell-based; settings: 1-hour treatment, compound alone
Description: as §3

[11] = 10^−8 mol/L dose, vs Vehicle (DMSO)

SMILES	stimulation of reporter gene controlled by antioxidant responsive elements (ARE) [1]	ranking as HSP90 inhibitor from expression of HSPs, growth factors, antioxidant proteins/enzymes, cytokines, matrix remodeling proteins [2]	stimulation of reporter gene controlled by heat shock responsive elements (HSR) [3]	protection of H9c2 cardiomyoblasts from hypoxia (H9c2 cardiomyoblasts [4])	infarct area measured by TTC stain (isolated perfused heart)	Coronary reserve flow (CRF) (isolated perfused heart; [11])	I/R-induced systolic dysfunction (+/−dP/dt, generated pressure, EDP, contractility index) (isolated perfused heart; [11])	high sensitivity troponin T (TNT-hs) release (isolated perfused heart; [11])	cardiac output (CO) following I/R injury [5]	ejection fraction (EF) following I/R injury [5]	fractional shortening (FS) following I/R injury [5]	stroke volume (SV) following I/R injury [5]	protection of H9c2 cardiomyoblasts from hypoxia/reoxygenation stress (H9c2 cardiomyoblasts [6])	protection of H9c2 cells from oxidative stress induced death (paracrine) (H9c2 cells)	protection of rMSCs from 48-hour hypoxia induced cell death [7]	protection of H9c2 from 48-hour hypoxia-induced cell death (paracrine) [8]	IL-1β mRNA expression induced by EGCG and tBHQ [9]	capacity to improve viability of human MSCs challenged to hypoxic stress (human MSCs)	protection of rMSCs from oxidative stress induced death [10]
CC1=C(O)C(=O)C=C2C1=CC=C1[C@@]2(C)CC[C@@]2(C)[C@@H]3C[C@](C)(C(N)=O)CC[C@]3(C)CC[C@]12C [Analog 1]	among the most potent and efficient compounds tested	best HSP90 inhibitors	among the most potent and efficient compounds tested	effective	significantly reduced	preserved	protected the heart from I/R-induced systolic dysfunction	significantly reduced	preserving	preserving	preserving	preserving	effective						
CC(=O)O[C@@H]1C[C@H]2C(C)(C)C(=O)C=C[C@]2(C)[C@H]2CC[C@@]3(C)[C@H](c4ccoc4)OC(=O)[C@H]4O[C@]43[C@@]21C [Gedunin]														protects	protect	protects	downregulate	top scoring	protect treated cells from oxidative stress-induced death
C[C@@H]1C[C@H]2O[C@@H]2/C=C\C=C\C(=O)Cc2c(Cl)c(O)cc(O)c2C(=O)O1 [Radicicol]														no protection	protect	does not produce a mediator for paracrine efficacy			not
